Measured values from patent US6525001B1, “Substituted pyrimidine and pyridine herbicides” (Mid-American Commercialization Corporation, priority 1997, dated 2003).

Assays:
Assay type in all cases: in vivo
Set-up in all cases: key: 0 is no effect; 10 is complete control
[1] = tested on: bedstraw (Galium aparine); assay: Test B pre-/postemergence; settings: for Bedstraw plant response rating: Preemergence
How it was run: (§1)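 Response scores run from 0, meaning no effect, to 10, meaning complete control, assigned by eye relative to controls twelve to sixteen days after spraying. Treatment was both preemergence on planted seed and postemergence on plants at the 1- to 4-leaf stage.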

[2] = tested on: blackgrass (Alopecurus myosuroides); assay: Test B pre-/postemergence; settings: for Blackgrass plant response rating: Preemergence
How it was run: as §1

[3] = tested on: broadleaf signalgrass (Brachiaria decumbens); assay: Test B pre-/postemergence; settings: for B. signalgrass plant response rating: Preemergence
How it was run: as §1

[4] = tested on: cocklebur (Xanthium strumarium); assay: Test B pre-/postemergence; settings: for Cocklebur plant response rating: Preemergence
How it was run: as §1

[5] = tested on: corn (Zea mays); assay: Test B pre-/postemergence; settings: for Corn plant response rating: Preemergence
How it was run: as §1

[6] = tested on: crabgrass (Digitaria sanguinalis); assay: Test B pre-/postemergence; settings: for Crabgrass plant response rating: Preemergence
How it was run: as §1

[7] = tested on: giant foxtail (Setaria faberii); assay: Test B pre-/postemergence
How it was run: as §1

[8] = tested on: momingglory (Ipomoea hederacea); assay: Test B pre-/postemergence
How it was run: as §1

[9] = tested on: pigweed (Amaranthus retroflexus); assay: Test B pre-/postemergence
How it was run: as §1

[10] = tested on: purple nutsedge (Cyperus rotundus); assay: Test B pre-/postemergence
How it was run: as §1

[11] = tested on: rape (Brassica napus); assay: Test B pre-/postemergence
How it was run: as §1

[12] = tested on: soybean (Glycine max); assay: Test B pre-/postemergence
How it was run: as §1

[13] = tested on: sugar beet (Beta vulgaris); assay: Test B pre-/postemergence
How it was run: as §1

[14] = tested on: velvetleaf (Abutilon theophrasti); assay: Test B pre-/postemergence
How it was run: as §1

[15] = tested on: wheat (Triticum aestivum); assay: Test B pre-/postemergence
How it was run: as §1

[16] = tested on: wild oat (Avena fatua); assay: Test B pre-/postemergence
How it was run: as §1

[17] = tested on: bamyardgrass (Echinochloa crus-galli); assay: Test B flood test
How it was run: (§2)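 Each value is a visual injury score relative to controls, with 10 meaning complete control and 0 no effect. Evaluation took place twelve to sixteen days after the 2-leaf-stage plants were treated and kept in the greenhouse.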

[18] = tested on: duck salad (Heteranthera limosa); assay: Test B flood test
How it was run: as §2

[19] = tested on: rice (Oryza sativa); assay: Test B flood test
How it was run: as §2

[20] = tested on: smallflower flatsedge (Cyperus difformis); assay: Test B flood test
How it was run: as §2

[21] = Rate 250 g/ha, Postemergence (so in the source)
[22] = Rate 62 g/ha, Postemergence (flood test)
[23] = Rate 125 g/ha, Postemergence, flood test
[24] = Rate 250 g/ha, Postemergence (flood test species)
[25] = Rate 125 g/ha, Postemergence section (flood test species)

Cc1cnc(-c2ccc(Cl)cc2)nc1Cc1cccc(C#N)c1 [Compound 33]
Plant response rating, Bedstraw ([1]; Rate 62 g/ha, Postemergence): 9 | Bedstraw plant response rating ([1]; Rate 62 g/ha): 0 | Plant response rating, Bedstraw ([1]; Rate 125 g/ha, Postemergence): 9 | Bedstraw plant response rating ([1]; Rate 125 g/ha): 1 | Plant response rating, Bedstraw ([1]; Rate 250 g/ha, Postemergence): 9 | Plant response rating, Bedstraw [1, 21]: 2 | Plant response rating, Blackgrass ([2]; Rate 62 g/ha, Postemergence): 0 | Blackgrass plant response rating ([2]; Rate 62 g/ha): 0 | Plant response rating, Blackgrass ([2]; Rate 125 g/ha, Postemergence): 1 | Blackgrass plant response rating ([2]; Rate 125 g/ha): 0 | Plant response rating, Blackgrass ([2]; Rate 250 g/ha, Postemergence): 2 | Plant response rating, Blackgrass [2, 21]: 0 | Plant response rating, B. signalgrass ([3]; Rate 62 g/ha, Postemergence): 1 | B. signalgrass plant response rating ([3]; Rate 62 g/ha): 0 | Plant response rating, B. signalgrass ([3]; Rate 125 g/ha, Postemergence): 1 | B. signalgrass plant response rating ([3]; Rate 125 g/ha): 1 | Plant response rating, B. signalgrass ([3]; Rate 250 g/ha, Postemergence): 2 | Plant response rating, B. signalgrass ([3]; Rate 250 g/ha, Postemergence as printed in head r139 (second section for compounds 26-50)): 1 | Plant response rating, Cocklebur ([4]; Rate 62 g/ha, Postemergence): 3 | Cocklebur plant response rating ([4]; Rate 62 g/ha): 0 | Plant response rating, Cocklebur ([4]; Rate 125 g/ha, Postemergence): 6 | Cocklebur plant response rating ([4]; Rate 125 g/ha): 0 | Plant response rating, Cocklebur ([4]; Rate 250 g/ha, Postemergence): 6 | Plant response rating, Cocklebur [4, 21]: 0 | Plant response rating, Corn ([5]; Rate 62 g/ha, Postemergence): 1 | Corn plant response rating ([5]; Rate 62 g/ha): 0 | Plant response rating, Corn ([5]; Rate 125 g/ha, Postemergence): 1 | Corn plant response rating ([5]; Rate 125 g/ha): 0 | Plant response rating, Corn ([5]; Rate 250 g/ha, Postemergence): 1 | Plant response rating, Corn [5, 21]: 0 | Plant response rating, Crabgrass ([6]; Rate 62 g/ha, Postemergence): 0 | Crabgrass plant response rating ([6]; Rate 62 g/ha): 0 | Plant response rating, Crabgrass ([6]; Rate 125 g/ha, Postemergence): 0 | Crabgrass plant response rating ([6]; Rate 125 g/ha): 0 | Plant response rating, Crabgrass ([6]; Rate 250 g/ha, Postemergence): 1 | Plant response rating, Crabgrass [6, 21]: 0 | Plant response rating, Giant foxtail ([7]; Rate 62 g/ha, Postemergence): 0 | Giant foxtail plant response rating ([7]; Rate 62 g/ha, Preemergence): 0 | Giant foxtail plant response rating ([7]; Rate 125 g/ha, Postemergence): 0 | Giant foxtail plant response rating ([7]; Rate 125 g/ha, Preemergence): 1 | Plant response rating, Giant foxtail ([7]; Rate 250 g/ha, Postemergence): 1 | Plant response rating, Giant foxtail [7, 21]: 1 | Plant response rating, Morningglory ([8]; Rate 62 g/ha, Postemergence): 2 | Morningglory plant response rating ([8]; Rate 62 g/ha, Preemergence): 0 | Morningglory plant response rating ([8]; Rate 125 g/ha, Postemergence): 5 | Morningglory plant response rating ([8]; Rate 125 g/ha, Preemergence): 0 | Plant response rating, Morningglory ([8]; Rate 250 g/ha, Postemergence): 5 | Plant response rating, Morningglory [8, 21]: 0 | Plant response rating, Redroot pigweed ([9]; Rate 62 g/ha, Postemergence): 1 | Redroot pigweed plant response rating ([9]; Rate 62 g/ha, Preemergence): 0 | Redroot pigweed plant response rating ([9]; Rate 125 g/ha, Postemergence): 2 | Redroot pigweed plant response rating ([9]; Rate 125 g/ha, Preemergence): 0 | Plant response rating, Redroot pigweed ([9]; Rate 250 g/ha, Postemergence): 7 | Plant response rating, Redroot pigweed [9, 21]: 2 | Plant response rating, Nutsedge ([10]; Rate 62 g/ha, Postemergence): 0 | Nutsedge plant response rating ([10]; Rate 62 g/ha, Preemergence): 0 | Nutsedge plant response rating ([10]; Rate 125 g/ha, Postemergence): 0 | Nutsedge plant response rating ([10]; Rate 125 g/ha, Preemergence): 0 | Plant response rating, Nutsedge ([10]; Rate 250 g/ha, Postemergence): 0 | Plant response rating, Rape ([11]; Rate 62 g/ha, Postemergence): 6 | Rape plant response rating ([11]; Rate 62 g/ha, Preemergence): 0 | Rape plant response rating ([11]; Rate 125 g/ha, Postemergence): 7 | Rape plant response rating ([11]; Rate 125 g/ha, Preemergence): 0 | Plant response rating, Rape ([11]; Rate 250 g/ha, Postemergence): 7 | Plant response rating, Rape [11, 21]: 2 | Plant response rating, Soybean ([12]; Rate 62 g/ha, Postemergence): 1 | Soybean plant response rating ([12]; Rate 62 g/ha, Preemergence): 0 | Soybean plant response rating ([12]; Rate 125 g/ha, Postemergence): 2 | Plant response rating, Soybean ([12]; Rate 125 g/ha, Preemergence): 0 | Plant response rating, Soybean ([12]; Rate 250 g/ha, Postemergence): 4 | Plant response rating, Soybean [12, 21]: 0 | Plant response rating, Sugarbeets ([13]; Rate 62 g/ha, Postemergence): 10 | Sugarbeets plant response rating ([13]; Rate 62 g/ha, Preemergence): 0 | Sugarbeets plant response rating ([13]; Rate 125 g/ha, Postemergence): 10 | Plant response rating, Sugarbeets ([13]; Rate 125 g/ha, Preemergence): 1 | Plant response rating, Sugarbeets ([13]; Rate 250 g/ha, Postemergence): 10 | Plant response rating, Sugarbeets [13, 21]: 4 | Plant response rating, Velvetleaf ([14]; Rate 62 g/ha, Postemergence): 1 | Velvetleaf plant response rating ([14]; Rate 62 g/ha, Preemergence): 0 | Velvetleaf plant response rating ([14]; Rate 125 g/ha, Postemergence): 4 | Plant response rating, Velvetleaf ([14]; Rate 125 g/ha, Preemergence): 0 | Plant response rating, Velvetleaf ([14]; Rate 250 g/ha, Postemergence): 6 | Plant response rating, Velvetleaf [14, 21]: 1 | Wheat plant response rating ([15]; Rate 62 g/ha, Postemergence): 0 | Wheat plant response rating ([15]; Rate 62 g/ha, Preemergence): 0 | Wheat plant response rating ([15]; Rate 125 g/ha, Postemergence): 1 | Plant response rating, Wheat ([15]; Rate 125 g/ha, Preemergence): 0 | Plant response rating, Wheat ([15]; Rate 250 g/ha, Postemergence): 1 | Plant response rating, Wheat [15, 21]: 1 | Wild oats plant response rating ([16]; Rate 62 g/ha, Postemergence): 1 | Wild oats plant response rating ([16]; Rate 62 g/ha, Preemergence): 0 | Wild oats plant response rating ([16]; Rate 125 g/ha, Postemergence): 2 | Plant response rating, Wild oats ([16]; Rate 125 g/ha, Preemergence): 0 | Plant response rating, Wild oats ([16]; Rate 250 g/ha, Postemergence): 3 | Plant response rating, Wild oats [16, 21]: 1 | Plant response rating, Barnyardgrass [17, 22]: 1 | Plant response rating, Barnyardgrass [17, 23]: 2 | Plant response rating, Barnyardgrass [17, 24]: 3 | Plant response rating, Ducksalad [18, 22]: 0 | Plant response rating, Ducksalad [18, 23]: 1 | Plant response rating, Ducksalad [18, 24]: 2 | Plant response rating, Rice [19, 22]: 1 | Rice plant response rating [19, 25]: 1 | Plant response rating, Rice [19, 24]: 3 | Plant response rating, S. Flatsedge [20, 22]: 3 | S. Flatsedge plant response rating [20, 25]: 7 | Plant response rating, S. Flatsedge [20, 24]: 8
